The results in this text go back to patent US20160235806A1, “Novel Peptide Compound for Inhibiting Restenosis and Promoting Re-Endothelialization and Method for Preparing the Same” (Chonnam National University Hospital, priority 2014, published 2016).

The assay deals with vascular smooth muscle cell (SMC). The assay can be described thus: Effect on proliferation of vascular smooth muscle cell (SMC), XTT assay. Format: cell-based. The following applies: 1 uM; 1, 4, and 7 days; vs non-treated control that continuously grew until 7 days. The procedure:
As cells used in a cell culture, the vascular smooth muscle cell (SMC) which is a smooth muscle cell, and the human umbilical vein endothelial cell (HUVEC) which is the cell for promoting vascular re-endothelialization were purchased from Korea Cell Line Bank, respectively. The cell culture was performed by culturing the vascular smooth muscle cell (SMC) and the human umbilical vein endothelial cell (HUVEC) in Dulbecoco's modified eagle medium (DMEM) with 10% fetal bovine serum (FBS) under conditions of 37° C. and 5% CO2. […]
5×10^4 of SMC cells cultured according to Example 2 were cultured in the 24-well cell culture plate and then treated with 1 uM of the peptide compound prepared by Example 2 (hereinafter, referred to as ‘EVR-P’). […] After the reaction, 200 ul of the culture medium was transferred from each well to a 96 well cell culture dish, and degree of color change was measured from absorbance at a 450 nm wavelength by a spectroscopy.
5×10^4 of SMC cells cultured according to Example 2 were cultured in the 24-well cell culture plate and then treated with 1 uM of the known Everolimus (EVR)(LC Laboratories). […] After the reaction, 200 ul of the culture medium was transferred from each well to the 96 well cell culture dish, and degree of color change was measured from absorbance at a 450 nm wavelength by a spectroscopy.
For orientation: Tetrazolium dyes change colour on reduction, which living cells bring about.

As for `CO[C@H]1C[C@@H]2CC[C@@H](C)[C@@](O)(O2)C(=O)C(=O)N2CCCC[C@H]2C(=O)O[C@H]([C@H](C)C[C@@H]2CC[C@@H](OCCO)[C@H](OC)C2)CC(=O)[C@H](C)/C=C(\C)[C@@H](O)[C@@H](OC)C(=O)[C@H](C)C[C@H](C)/C=C/C=C/C=C/1C` [EVR, Everolimus], the “SMC cell proliferation (XTT, absorbance at 450 nm)” value is listed as “cell proliferation was inhibited”.
